Article PMC12249917, “Novel Au(I)- and Ag(I)-NHC Complexes with N-Boc-Protected Proline as Potential Candidates for Neurodegenerative Disorders” (International Journal of Molecular Sciences, 2025)
Read-outs that look alike come from different tables or passages of the source.

What was measured:
[1] = molecular target: equine butyrylcholinesterase (eqBChE) (Equus caballus, UniProt P81908)
Method: (§1) The enzyme-inhibiting properties of the Au and Ag complexes against electric eel acetylcholinesterase (eeAChE) and equine butyrylcholinesterase (eqBChE) were assessed via a modified Ellman assay. […] A buffer-only control was included. The inhibition potency (IC50) was calculated from triplicate dose–response data, presented as the mean ± SD.

[2] = molecular target: electric eel acetylcholinesterase (eeAChE) (Electrophorus electricus, UniProt O42275)
electric eel acetylcholinesterase (eeAChE), sequence (O42275 24-633): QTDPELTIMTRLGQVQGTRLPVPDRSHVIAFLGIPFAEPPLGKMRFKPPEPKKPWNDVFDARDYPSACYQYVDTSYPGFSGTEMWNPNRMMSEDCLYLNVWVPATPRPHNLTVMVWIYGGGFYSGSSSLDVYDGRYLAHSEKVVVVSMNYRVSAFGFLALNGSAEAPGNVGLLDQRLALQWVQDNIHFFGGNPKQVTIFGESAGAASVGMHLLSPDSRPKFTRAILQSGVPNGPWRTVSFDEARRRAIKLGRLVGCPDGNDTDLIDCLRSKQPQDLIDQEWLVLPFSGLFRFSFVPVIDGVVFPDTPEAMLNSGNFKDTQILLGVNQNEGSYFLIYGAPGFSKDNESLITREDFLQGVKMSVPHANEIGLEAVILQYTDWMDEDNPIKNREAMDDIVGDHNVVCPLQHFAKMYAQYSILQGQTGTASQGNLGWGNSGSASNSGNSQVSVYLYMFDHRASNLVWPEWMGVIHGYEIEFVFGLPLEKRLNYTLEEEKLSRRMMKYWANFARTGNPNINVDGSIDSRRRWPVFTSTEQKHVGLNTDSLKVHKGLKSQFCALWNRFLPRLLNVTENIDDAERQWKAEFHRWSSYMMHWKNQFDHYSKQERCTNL
Method: as §1

[3] = tested on: NO production in LPS-stimulated RAW 264.7 murine macrophages (iNOS); experiment: Griess assay, NO production (iNOS) in LPS-stimulated RAW 264.7 macrophages; format: cell-based; conditions: for inhibition of NO production: 5 µM
Method: As a positive control, the nonsteroidal anti-inflammatory drug (NSAID) Indomethacin (Ind) was used.
Then, the cell culture medium was combined with an equal volume of Griess reagent at 40 mg/mL (ratio 1:1), and after a 30 min incubation with agitation, the optical density was measured at 540 nm. The levels of NO vs. LPS were calculated from the absorbance measurements using the following formula:(1) INO vs LPS (%)=ABSLPS−ABSSample/ABSLPS∗100 where ABSLPS represents the average absorbance of cells treated with LPS alone, and ABSsample represents the average absorbance of cells treated with both LPS and the tested complexes or Indomethacin.
NO production was induced by LPS (1 µg/mL). […] Salmon histograms: MTT assays performed in same experimental conditions in order to verify effect on RAW 264.7 cells’ viability of Indomethacin and tested complexes. Data were plotted as % of cell viability with respect to viability with LPS-only treatment (1 µg/mL).

[4] = molecular target: T1, hMAO-A (Homo sapiens, UniProt P21397); experiment: hMAO-A inhibitory activity; format: biochemical
T1 sequence (P21397 1-527): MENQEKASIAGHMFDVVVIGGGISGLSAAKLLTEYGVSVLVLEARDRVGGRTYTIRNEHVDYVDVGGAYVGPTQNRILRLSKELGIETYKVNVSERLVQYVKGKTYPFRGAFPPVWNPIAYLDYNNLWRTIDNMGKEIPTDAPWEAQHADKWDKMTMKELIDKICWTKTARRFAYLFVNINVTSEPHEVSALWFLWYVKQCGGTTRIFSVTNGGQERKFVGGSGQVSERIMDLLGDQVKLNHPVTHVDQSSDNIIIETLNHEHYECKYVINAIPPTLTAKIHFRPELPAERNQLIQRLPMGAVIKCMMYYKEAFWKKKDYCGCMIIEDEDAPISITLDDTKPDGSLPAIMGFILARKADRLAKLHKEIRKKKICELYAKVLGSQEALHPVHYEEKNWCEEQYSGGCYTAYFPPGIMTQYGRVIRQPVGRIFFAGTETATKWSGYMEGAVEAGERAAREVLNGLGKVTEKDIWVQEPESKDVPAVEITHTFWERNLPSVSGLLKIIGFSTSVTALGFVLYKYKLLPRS
Method: (§2) Altered levels of MAO-A/B are associated with the degeneration of neurotransmitter biogenic amines such as serotonin, noradrenaline, and dopamine and are implicated in several diseases, such as depression, cancer, PD, and AD [27]. With this in mind, we explored the potential of these complexes in inhibiting human MAO (hMAO) isoforms.
(§3) The inhibitory activity of the gold and silver complexes against hMAO-A and hMAO-B was evaluated using a previously published protocol. […] Data analysis was performed using GraphPad PRISM 9 (GraphPad Software®, San Diego, CA, USA). IC50 values were determined from the dose–response curves and were presented as the mean ± SD of three independent experiments, each conducted in triplicate.

[5] = tested on: RAW 264.7 cells; experiment: MTT cell viability, RAW 264.7; format: cell-based, murine; conditions: RAW 264.7, MTT, 24 h
Method: 3-(4,5-dimethylthiazol-2-yl)-2,5-diphenyl-2H-tetrazolium bromide (MTT) was added to the cells in order to measure the cell viability at 24 h, as previously reported. IC50 values were determined from the dose–response curves for both NO inhibition (%) and the cell viability (%) using GraphPad Prism 9 software (GraphPad Software, La Jolla, CA, USA) and were presented as the mean ± SD of three independent experiments, each conducted in triplicate.
Figure 2 Brown histograms: Anti-inflammatory activity in terms of NO production inhibition (%), measured in vitro using RAW 264.7 murine macrophages. NO production was induced by LPS (1 µg/mL). Data were plotted as % NO inhibition with respect to inhibition with LPS-only treatment. Salmon histograms: MTT assays performed in same experimental conditions in order to verify effect on RAW 264.7 cells’ viability of Indomethacin and tested complexes. Data were plotted as % of cell viability with respect to viability with LPS-only treatment (1 µg/mL). Indomethacin (Ind) was used at concentration of 25 µM, while all other complexes were used at 5 µM, for 24 h. Bars ± SDs are shown (n = 3). ** p < 0.01 and **** p < 0.0001 for complex 3bP and Ind vs. LPS only; not significant (n.s.) where not indicated.

[6] = molecular target: T2, hMAO-B (Homo sapiens, UniProt P27338); format: biochemical; conditions: for IC50: mean ± S.D., three experiments in triplicate
T2 sequence (P27338 1-520): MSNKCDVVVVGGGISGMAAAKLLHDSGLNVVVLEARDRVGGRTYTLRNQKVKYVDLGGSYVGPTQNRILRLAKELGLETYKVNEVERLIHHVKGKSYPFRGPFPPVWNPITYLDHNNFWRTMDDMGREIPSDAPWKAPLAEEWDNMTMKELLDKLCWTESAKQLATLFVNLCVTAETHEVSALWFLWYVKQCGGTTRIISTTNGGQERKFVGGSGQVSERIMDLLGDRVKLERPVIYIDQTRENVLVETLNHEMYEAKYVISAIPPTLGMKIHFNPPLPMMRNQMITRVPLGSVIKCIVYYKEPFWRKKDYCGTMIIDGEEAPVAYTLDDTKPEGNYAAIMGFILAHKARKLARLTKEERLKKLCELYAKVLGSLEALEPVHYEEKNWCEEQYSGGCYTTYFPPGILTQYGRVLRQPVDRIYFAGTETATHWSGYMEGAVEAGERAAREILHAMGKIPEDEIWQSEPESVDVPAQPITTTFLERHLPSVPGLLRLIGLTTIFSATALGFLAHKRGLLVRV
Method: as §2, §3

[7] = tested on: intracellular ROS production in 3T3-L1 murine fibroblasts; experiment: Intracellular ROS (H2DCF-DA) in menadione-treated 3T3-L1 fibroblasts; format: cell-based; conditions: menadione 25 µM, 15 min; for ROS production reduced to, compared to Men treatment alone: 24 h
Method: N-acetyl-cysteine (NAC), a powerful antioxidant, was used as a positive control.
The antioxidant capacity of the Au and Ag complexes was evaluated in 3T3-L1 murine fibroblasts by assessing the intracellular reactive oxygen species (ROS) levels using a DCFH2-DA assay, following a previously established method [36]. The cells were seeded in 96-well plates and incubated with the tested complexes at concentrations of between 0.1 and 20 µM for a 24 h period. […] N-acetylcysteine (NAC), a recognized antioxidant, served as a positive control at 20 mM. […] The % of ROS production inhibition (IROS) vs. that of the menadione-treated cells was calculated using the following formula:(2) IROS vs Men (%)=FMen−FSample/FMen∗100 where FMen represents the average fluorescence of the cells treated with menadione alone, and Fsample represents the average fluorescence of the cells treated with both menadione and the tested complexes or NAC.
Data were plotted as % ROS inhibition with respect to inhibition with Men-only treatment.

[8] = read-out: IC50 (µM) eqBChE, mean ± S.D., three experiments in triplicate
[9] = read-out: IC50 (µM) eeAChE, mean ± S.D., three experiments in triplicate
[10] = LPS 1 µg/mL, RAW 264.7, 24 h, read-out: IC50 (µM) NO Inhibition
[11] = mean ± S.D., three experiments in triplicate, read-out: IC50 (µM) hMAO-A
[12] = read-out: IC50 (μM), hBChE (Table S1), Table S1, experimentally derived IC50, column headed hBChE
[13] = Table S2, experimentally derived IC50, read-out: IC50 (μM), hMAOA (Table S2)
[14] = read-out: IC50 (μM), hAChE (Table S1), Table S1, experimentally derived IC50, column headed hAChE

equine butyrylcholinesterase (eqBChE), sequence (P81908 whole entry): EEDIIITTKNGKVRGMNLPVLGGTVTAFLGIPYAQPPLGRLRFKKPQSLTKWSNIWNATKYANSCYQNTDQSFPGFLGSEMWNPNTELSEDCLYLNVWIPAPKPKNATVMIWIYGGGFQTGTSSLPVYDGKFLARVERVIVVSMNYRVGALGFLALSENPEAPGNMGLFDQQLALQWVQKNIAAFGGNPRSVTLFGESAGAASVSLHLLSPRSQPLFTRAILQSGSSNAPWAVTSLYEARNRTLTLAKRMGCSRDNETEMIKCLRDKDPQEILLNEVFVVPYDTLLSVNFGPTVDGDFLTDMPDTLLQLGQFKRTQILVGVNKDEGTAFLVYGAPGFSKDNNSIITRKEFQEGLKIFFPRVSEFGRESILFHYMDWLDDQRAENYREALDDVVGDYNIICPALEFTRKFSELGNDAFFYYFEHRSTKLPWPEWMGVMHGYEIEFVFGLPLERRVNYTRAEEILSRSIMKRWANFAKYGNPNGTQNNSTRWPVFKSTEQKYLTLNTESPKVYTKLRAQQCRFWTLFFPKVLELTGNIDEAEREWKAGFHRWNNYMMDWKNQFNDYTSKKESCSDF

| Compound | IC50 [1, 8] [µM] | IC50 [2, 9] [µM] | IC50 [3, 10] [µM] | IC50 [4, 11] [µM] | IC50 [5] [µM] | IC50 [6] [µM] | SI, eqBChE selectivity index = IC50(eeAChE)/IC50(eqBChE) [1] | SI, hMAO-B selectivity index = IC50(hMAO-A)/IC50(hMAO-B) [6] | IC50 [1, 12] [µM] | IC50 [4, 13] [µM] | IC50 [2, 14] [µM] | inhibition of NO production ([3]; 24 h, vs LPS-only treatment) | IC50 ([3]; Table S3, experimentally derived IC50, read-out: IC50 (μM), iNOS (Table S3)) [µM] | ROS production reduced to, compared to Men treatment alone ([7]; 1 µM) | ROS production reduced to, compared to Men treatment alone ([7]; 10 µM) | inhibition at 25 µM ([3]; Mus musculus, RAW264.7, 25 µM, 24 h, vs LPS-only treatment) [%] | IC50 ([3]; Mus musculus, RAW264.7, LPS 1 µg/mL, RAW 264.7, 24 h, read-out: IC50 (µM) NO Inhibition) [µM] | IC50 ([5]; Mus musculus, RAW264.7) [µM] | ROS formation reduced to [7] |
| --- | --- | --- | --- | --- | --- | --- | --- | --- | --- | --- | --- | --- | --- | --- | --- | --- | --- | --- | --- |
| C[n+]1ccn(CC(O)c2ccccc2)[c]1[Ag-][O]C(=O)[C@@H]1CCCN1C(=O)OC(C)(C)C (some centres unmarked) [1aP] | > 25 | > 25 | > 50 | > 25 | > 50 | > 25 |  |  |  |  |  |  |  |  |  |  |  |  |  |
| C[n+]1ccn(CC(O)c2ccccc2)[c]1[Au-][O]C(=O)[C@@H]1CCCN1C(=O)OC(C)(C)C (some centres unmarked) [1bP] | 6.19 ± 0.91 | 18.4 ± 1.43 | > 50 | 1.32 ± 0.02 | > 50 | 3.78 ± 0.16 | 2.97 | 0.35 |  |  |  |  |  |  |  |  |  |  |  |
| C[n+]1c(Cl)c(Cl)n(CC(O)c2ccccc2)[c]1[Ag-][O]C(=O)[C@@H]1CCCN1C(=O)OC(C)(C)C (some centres unmarked) [2aP] | 18.2 ± 2.4 | > 25 | > 50 | 15 ± 1.02 | > 50 | 9.82 ± 0.84 | >1.37 | 1.53 | 18.2 ± 0.02 | 15 ± 0.9 |  |  |  |  |  |  |  |  |  |
| C[n+]1c(Cl)c(Cl)n(CC(O)c2ccccc2)[c]1[Au-][O]C(=O)[C@@H]1CCCN1C(=O)OC(C)(C)C (some centres unmarked) [2bP] | 3.14 ± 0.33 | 4.68 ± 0.47 | 32.3 ± 1.82 | 0.72 ± 0.02 | > 50 | 1.94 ± 0.09 | 1.49 | 0.37 | 3.1 ± 0.02 |  | 4.7 ± 0.02 |  |  |  |  |  |  |  |  |
| C[n+]1c(-c2ccccc2)c(-c2ccccc2)n(CC(O)c2ccccc2)[c]1[Ag-][O]C(=O)[C@@H]1CCCN1C(=O)OC(C)(C)C (some centres unmarked) [3aP] | 17.4 ± 0.98 | > 25 | 30.9 ± 1.74 | 25 ± 2.95 | > 50 | > 25 | >1.44 |  |  |  |  | approximately 8% |  |  |  |  |  |  |  |
| C[n+]1c(-c2ccccc2)c(-c2ccccc2)n(CC(O)c2ccccc2)[c]1[Au-][O]C(=O)[C@@H]1CCCN1C(=O)OC(C)(C)C (some centres unmarked) [3bP] | > 25 | 5.89 ± 0.56 | 4.88 ± 0.58 | 1.84 ± 0.18 | 20.3 ± 1.26 | 4.75 ± 0.75 |  | 0.39 |  |  |  | about 52% | 4.9 ± 0.5 | approximately 70% |  |  |  |  |  |
| C[n+]1[c]([Ag-][O]C(=O)[C@@H]2CCCN2C(=O)OC(C)(C)C)n(CC(O)c2ccccc2)c2ccccc21 (some centres unmarked) [4aP] | 5.19 ± 0.95 | 14 ± 0.72 | > 50 | 3.32 ± 0.15 | > 50 | 10.4 ± 1.95 | 2.68 | 0.32 | 5.2 ± 0.05 | 3.3 ± 0.01 | 13.9 ± 0.01 |  |  |  |  |  |  |  |  |
| C[n+]1[c]([Au-][O]C(=O)[C@@H]2CCCN2C(=O)OC(C)(C)C)n(CC(O)c2ccccc2)c2ccccc21 (some centres unmarked) [4bP] | 0.45 ± 0.06 | 3.72 ± 0.44 | 13.1 ± 0.92 | 0.0713 | 12.1 ± 1.03 | 2.1 ± 0.2 | 8.27 | 0.03 |  |  | 3.7 ± 0.02 |  |  |  | approximately 60% |  |  |  |  |
| COc1ccc2c(c1)c(CC(=O)O)c(C)n2C(=O)c1ccc(Cl)cc1 [Indomethacin, reference compound] |  |  |  |  |  |  |  |  |  |  |  |  |  |  |  | ~20 | > 50 | > 50 |  |
| CC(=O)N[C@@H](CS)C(=O)O [NAC, N-acetyl-cysteine, reference compound] |  |  |  |  |  |  |  |  |  |  |  |  |  |  |  |  |  |  | approximately 70% |
